Source: PMC7687128, “Extracellular loops matter – subcellular location and function of the lysine transporter Lyp1 from Saccharomyces cerevisiae” (The Febs Journal, 2020)
Where a chain is given by its changes, count along the chain named. Numbers in names are those of the source.

Experiments:
Lyp1 (Lyp1-YPet) [1] = biological target: T1, Lyp1 (Lyp1-YPet) (Saccharomyces cerevisiae, UniProt P32487, I280A/G281A/F282A); experiment: initial rate of […]-lysine uptake in S. cerevisiae cells; assay type: cell-based; settings: out-to-in transport; 100 mM potassium phosphate, 10 mM glucose, pH 6.0, 30 °C; labelled compound
T1 construct: full-length, YPet fluorescent protein fusion, plasmid-expressed in S. cerevisiae, assayed in whole cells
T1 sequence (P32487 1-611 I280A/G281A/F282A): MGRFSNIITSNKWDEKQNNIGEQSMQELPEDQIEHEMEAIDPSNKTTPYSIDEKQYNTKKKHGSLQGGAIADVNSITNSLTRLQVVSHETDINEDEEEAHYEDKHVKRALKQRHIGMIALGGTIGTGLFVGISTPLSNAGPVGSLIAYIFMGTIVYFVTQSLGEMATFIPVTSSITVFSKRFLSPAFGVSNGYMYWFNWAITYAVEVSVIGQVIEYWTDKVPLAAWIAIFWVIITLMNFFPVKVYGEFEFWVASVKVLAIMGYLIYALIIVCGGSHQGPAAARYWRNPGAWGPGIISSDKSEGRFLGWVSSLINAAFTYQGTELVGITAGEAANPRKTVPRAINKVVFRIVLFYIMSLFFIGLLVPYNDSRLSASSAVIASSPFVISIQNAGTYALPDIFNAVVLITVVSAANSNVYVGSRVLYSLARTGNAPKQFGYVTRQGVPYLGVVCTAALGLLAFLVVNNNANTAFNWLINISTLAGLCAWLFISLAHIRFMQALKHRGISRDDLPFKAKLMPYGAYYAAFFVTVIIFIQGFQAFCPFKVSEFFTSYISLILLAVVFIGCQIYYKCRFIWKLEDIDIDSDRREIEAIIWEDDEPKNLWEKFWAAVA

Lyp1 (Lyp1-YPet) [2] = biological target: T2, Lyp1 (Lyp1-YPet) (Saccharomyces cerevisiae, UniProt P32487, G289A/W291A); experiment: as above; assay type: cell-based; settings: out-to-in transport; 100 mM potassium phosphate, 10 mM glucose, pH 6.0, 30 °C; labelled compound
T2 construct: full-length, YPet fluorescent protein fusion, plasmid-expressed in S. cerevisiae, assayed in whole cells
T2 sequence (P32487 1-611 G289A/W291A): T1 sequence (P32487 1-611 I280A/G281A/F282A) with A280I, A281G, A282F, G289A, W291A

Lyp1 (Lyp1-YPet) [3] = biological target: T3, Lyp1 (Lyp1-YPet) (Saccharomyces cerevisiae, UniProt P32487); experiment: competition with […]-lysine uptake in S. cerevisiae cells; assay type: cell-based; settings: 20 µM [14C]-lysine, 100 mM potassium phosphate, 10 mM glucose, pH 6.0, 30 °C; competitor
T3 construct: full-length, YPet fluorescent protein fusion, plasmid-expressed in S. cerevisiae, assayed in whole cells
T3 sequence (P32487 1-611): T1 sequence (P32487 1-611 I280A/G281A/F282A) with A280I, A281G, A282F

[4] = substrate: NCCCC[C@H](N)C(=O)O; experiment: cells, lysate or membranes; assay type: cell-based, Saccharomyces cerevisiae; settings: out-to-in transport, 100 mM potassium phosphate, 10 mM glucose, pH 6.0, 30 °C, labelled compound

**Q.** How did the Km (Lyp1 (Lyp1-YPet) [1]) turn out when NCCCC[C@H](N)C(=O)O [L-lysine] was run?
**A.** > 100 µM

**Q.** What about the Km (Lyp1 (Lyp1-YPet) [2]) of the same molecule?
**A.** > 100 µM

**Q.** Which “% reduction of lysine transport at 100 mM” value (from here on “% reduction”) (Lyp1 (Lyp1-YPet) [3]) does the source give for C[C@H](N)C(=O)O [alanine] here?
**A.** > 80%

**Q.** N[C@@H](Cc1cnc[nH]1)C(=O)O [histidine] was tested. Which “% reduction” value (Lyp1 (Lyp1-YPet) [3]) did it give?
**A.** > 80%

**Q.** With N=C(N)NCCC[C@H](N)C(=O)O [arginine] as the molecule, how does the “% reduction” value (Lyp1 (Lyp1-YPet) [3]) read?
**A.** > 80%

B1: Lyp1 (Lyp1-YPet) (Saccharomyces cerevisiae S288C) (protein)
chain: T1 sequence (P32487 1-611 I280A/G281A/F282A) with A280I, A281G, A282F
notes: full-length, YPet fluorescent protein fusion, plasmid-expressed in S. cerevisiae, assayed in whole cells
**Q.** How did the Km [4] turn out when B1 was run?
**A.** 10 µM

B2: Lyp1 (Lyp1-YPet) (Saccharomyces cerevisiae S288C; G292A/G294A/P293A) (protein)
chain: T1 sequence (P32487 1-611 I280A/G281A/F282A) with A280I, A281G, A282F, G292A, P293A, G294A
notes: as for B1
**Q.** For B2, which Km [4] is on record?
**A.** 63 ± 83 µM

B3: Lyp1 (Lyp1-YPet) (Saccharomyces cerevisiae S288C; E215A/W217A/Y216A) (protein)
chain: T1 sequence (P32487 1-611 I280A/G281A/F282A) with E215A, Y216A, W217A, A280I, A281G, A282F
notes: as for B1
**Q.** With B3 as the molecule, how does the Km [4] read?
**A.** 34 ± 17 µM

B4: Lyp1 (Lyp1-YPet) (Saccharomyces cerevisiae S288C; F471A/T469A) (protein)
chain: T1 sequence (P32487 1-611 I280A/G281A/F282A) with A280I, A281G, A282F, T469A, F471A
notes: as for B1
**Q.** Which Km [4] does the source give for B4 here?
**A.** 25 ± 21 µM

B5: Lyp1 (Lyp1-YPet) (Saccharomyces cerevisiae S288C; N390A/Q389A) (protein)
chain: T1 sequence (P32487 1-611 I280A/G281A/F282A) with A280I, A281G, A282F, Q389A, N390A
notes: as for B1
**Q.** Which Km [4] does the source give for B5 here?
**A.** 7.4 ± 1.0 µM
